Source: patent publication US12180194B2, “Multi-aziridine compound” (Covestro (Netherlands) B.V., priority 2018, dated 2024)

Key:
Rtkn-GFP = assay: ToxTracker genotoxicity assay, Rtkn-GFP reporter induction
Bscl2-GFP = assay: ToxTracker genotoxicity assay, Bscl2-GFP reporter induction
[1] = GFP induction vs vehicle at 10% cytotoxicity, 3 h exposure with S9, 24 h recovery
[2] = GFP induction vs vehicle at 10% cytotoxicity, 24 h exposure, no S9
[3] = GFP induction vs vehicle at 25% cytotoxicity, 3 h exposure with S9, 24 h recovery
[4] = GFP induction vs vehicle at 25% cytotoxicity, 24 h exposure, no S9
[5] = GFP induction vs vehicle at 50% cytotoxicity, 3 h exposure with S9, 24 h recovery
[6] = GFP induction vs vehicle at 50% cytotoxicity, 24 h exposure, no S9

CCCCOCC(CN1CC1C)OC(=O)NC(C)(C)c1cccc(C(C)(C)NC(=O)OC(COCCCC)CN2CC2C)c1 (stereo not drawn) [Ex. 11]
Genotoxicity test, With S9 rat liver extract, Rtkn, 10 (Rtkn-GFP; [1]): 1.3 fold | Genotoxicity test, Without S9 rat liver extract, Rtkn, 10 (Rtkn-GFP; [2]): 1.1 fold | Genotoxicity test, With S9 rat liver extract, Rtkn, 25 (Rtkn-GFP; [3]): 1.3 fold | Genotoxicity test, Without S9 rat liver extract, Rtkn, 25 (Rtkn-GFP; [4]): 1.3 fold | Genotoxicity test, With S9 rat liver extract, Rtkn, 50 (Rtkn-GFP; [5]): 1.1 fold | Genotoxicity test, Without S9 rat liver extract, Rtkn, 50 (Rtkn-GFP; [6]): 1.3 fold | Genotoxicity test, With S9 rat liver extract, Bscl 2, 10 (Bscl2-GFP; [1]): 1.2 fold | Genotoxicity test, Without S9 rat liver extract, Bscl 2, 10 (Bscl2-GFP; [2]): 1.1 fold | Genotoxicity test, With S9 rat liver extract, Bscl 2, 25 (Bscl2-GFP; [3]): 1.3 fold | Genotoxicity test, Without S9 rat liver extract, Bscl 2, 25 (Bscl2-GFP; [4]): 1.3 fold | Genotoxicity test, With S9 rat liver extract, Bscl 2, 50 (Bscl2-GFP; [5]): 1.3 fold | Genotoxicity test, Without S9 rat liver extract, Bscl 2, 50 (Bscl2-GFP; [6]): 1.3 fold
